Experimental data as given in patent US20220280594A1, “APPLICATION OF POLYPEPTIDE OR DERIVATIVE THEREOF” (CHENGDU HUITAI BIOMEDICINE CO., LTD., priority 2019, published 2022).
Ends that are not written are not given here. PEG = not defined here

Key:
[1] = test system: human non-small cell lung cancer cells (A549); assay: scratch assay, migration of A549 cells; format: cell-based; details: A549, 10 μM, 48 hours; control group 75.31 ± 8.19
In short: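 Confluent A549 monolayers in 24-well plates were scratched, washed with PBS, then cultured 48 h in 2% FBS medium with peptide at 10 μM or PBS control, triplicate wells. Scratch width measured from images; migration rate (%) = (original − current width)/original width × 100.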

[2] = test system: human lung cancer cells (95D); assay: scratch assay, migration of 95D cells; format: cell-based; details: 10 μM, 48 hours, control group 55.3 ± 3.19
In short: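 Confluent 95D monolayers were scratched, washed with PBS and cultured 48 h in 2% FBS medium containing peptide (10 μM) or PBS control, in triplicate wells. Scratch width was measured on images; migration rate (%) = (original width − current width)/original width × 100.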

[3] = test system: human lung squamous carcinoma cells (NCI-H226); assay: scratch assay, migration of NCI-H226 cells; format: cell-based; details: NCI-H226, 10 μM, 48 hours; control group 65.31 ± 3.19
In short: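 A straight scratch was made in confluent NCI-H226 monolayers (1-2×10^5 cells/well). Cells were then kept 48 h in 2% FBS medium with 10 μM polypeptide or PBS control, triplicate wells. Migration rate (%) = (original − current scratch width)/original width ×100, from imaged scratch widths.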

[4] = test system: human lung cancer cells (A549) subcutaneous xenograft; assay: lung cancer subcutaneous xenograft animal model, intravenous injection; format: in vivo, mice (BALB/c-nu/nu); details: intravenous 60 mg/kg once every other day, 20 days; for Weight of tumor (g) (mean ± SD): control 2.53 ± 0.17; for Volume of tumor (mm^3) (mean ± SD): control 3373.26 ± 581.44
In short: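 Female BALB/c-nu/nu mice (4-6 weeks) inoculated subcutaneously with ~2×10^6 A549 cells; grouped once tumours exceeded 100 mm^3. Peptides given intravenously at 60 mg/kg for 20 days versus model control. Tumour weight and volume measured at dissection; body weight recorded every other day.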

[5] = test system: human pancreatic cancer cells (PANC-1); assay: transwell migration assay, PANC-1 cells; format: cell-based; details: PANC-1 transwell migration, 10 μM, 24 hours; control group 360 ± 60
In short: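 Serum-free PANC-1 cells placed in the upper transwell chamber with complete medium below; after 4-5 h, peptide added to the upper chamber at a final 10 μM. Migration ran 24 h at 37 °C; cells on the membrane underside were methanol-fixed, crystal violet-stained and counted by microscopy.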

[6] = test system: human liver adenocarcinoma cells (SK-HEP-1); assay: transwell migration assay, SK-HEP-1 cells; format: cell-based; details: SK-HEP-1 transwell migration, 10 μM, 24 hours; control group 1 782 ± 108, control group 2 768 ± 86
In short: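 SK-HEP-1 cells in serum-free medium seeded in upper transwell chamber (2-3×10^5 cells/mL) over complete medium; after 4-5 h at 37 °C, 5% CO2, peptide added at 10 μM final in upper chamber. After 24 h, migrated cells fixed in methanol, crystal-violet stained, imaged and counted.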

[7] = test system: human breast cancer cells (MDA-MB-453); assay: scratch assay, migration of MDA-MB-453 cells; format: cell-based; details: MDA-MB-453, 10 μM, 48 hours; control group 32.42 ± 2.04
In short: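 Confluent MDA-MB-453 monolayers were scratched, then treated with peptide at 10 μM in 2% FBS medium for 48 h, with a PBS control and triplicate wells. Migration rate (%) was taken as (original − current scratch width)/original width ×100 from images.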

[8] = test system: human oral epidermoid carcinoma KB cells; assay: scratch assay, migration of KB cells; format: cell-based; details: 10 μM, 48 hours, control group 54.03 ± 4.21
In short: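 Monolayers of KB cells were scratched, washed with PBS, then cultured 48 hours in 2% FBS medium containing test polypeptide (10 μM) or PBS control, in triplicate wells. From images, migration rate (%) = (original − current scratch width)/original width × 100.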

[9] = test system: human thyroid cancer cells (FRO); assay: scratch assay, migration of FRO cells; format: cell-based; details: 10 μM, 48 hours, control group 60.34 ± 8.32
In short: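 FRO monolayers were scratched, washed, and cultured 48 h in 2% FBS medium with polypeptide derivatives at 10 μM or PBS control, three wells per group. Migration rate (%) = (original − current scratch width)/original width × 100, measured from images.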

Substance | Migration rate (%) (mean ± SD, P) [1] | Migration rate (%) (mean ± SD, P) [2] | Migration rate (%) (mean ± SD, P) [3] | Weight of tumor (g) (mean ± SD) [4] | Volume of tumor (mm^3) (mean ± SD) [4] | Number of cells (mean ± SD, P), migrated cells [5] | Number of cells (mean ± SD, P), migrated cells [6] | Migration rate (%) (mean ± SD, P) [7] | Migration rate (%) (mean ± SD, P) [8] | Migration rate (%) (mean ± SD, P) [9]
N53: SEQ ID NO: 1 with A15R, one amino acid added at each terminal, PEG modification at the carboxyl terminal (FYRVRFLAKENVTQDREDNC-{PEG}; reading uncertain) | 58.05 ± 3.60,* % | 21.05 ± 6.60,** % | 41.05 ± 4.60,** % | 0.75 ± 0.27 | 1549.08 ± 539.99 | 131 ± 8,*** | 265 ± 32,**** | 8.02 ± 3.35,*** % | 8.83 ± 1.75,*** % | 20.32 ± 4.58,** %
N5: SEQ ID NO: 1 with addition of one amino acid at the carboxyl terminal and deletion of positions 1-3 (RFLAKENVTQDAEDNC) | 46.66 ± 5.92,** % | 28.27 ± 5.00,** % | 10.65 ± 9.94,*** % | 0.71 ± 0.12 | 1353.09 ± 422.65 | 234 ± 27,* | 167 ± 12,**** | 14.74 ± 3.23,** % | 9.62 ± 3.84,*** % | 4.71 ± 1.90,*** %
N23: SEQ ID NO: 1 with substitution A7R, deletion of position 11 and of positions 15-18 (YRVRFLRKENTQDAED) | 26.03 ± 4.21,*** % | 30.38 ± 4.68,** % | 13.24 ± 8.19,*** % | 0.65 ± 0.17 | 993.11 ± 298.65 | 200 ± 14,*** | 276 ± 24,**** | 18.2 ± 3.53,** % | 10.57 ± 1.7,*** % | 34.39 ± 4.10,* %
N34: SEQ ID NO: 1 with A15R, addition of one amino acid at the carboxyl terminal, PEG modification at the amino terminal ({PEG}-YRVRFLAKENVTQDREDNC; reading uncertain) | 30.51 ± 8.12,** % | 13.53 ± 4.35,*** % | 36.53 ± 4.35,** % | 1.06 ± 0.15 | 1472.21 ± 914.38 | 248 ± 19,* | 260 ± 32,**** | 9.57 ± 3.68,*** % | 12.88 ± 1.71,*** % | 8.74 ± 3.40,*** %
N9: SEQ ID NO: 1 with deletion of positions 15-18 and PEG modification at the amino terminal ({PEG}-YRVRFLAKENVTQD; reading uncertain) | 56.92 ± 4.49,** % | 32.27 ± 4.69,** % | 35.47 ± 5.20,** % | 0.82 ± 0.29 | 1241.9 ± 388.92 | 148 ± 16,*** | 174 ± 15,**** | 7.19 ± 2.38,*** % | 9.27 ± 2.63,*** % | 20.51 ± 5.04,** %
N32: SEQ ID NO: 1 with deletion of positions 1-3, addition of one amino acid and PEG modification at the carboxyl terminal (RFLAKENVTQDAEDNC-{PEG}; reading uncertain) | 28.06 ± 8.55,** % | 29.47 ± 3.42,** % | 19.47 ± 6.42,*** % | 0.88 ± 0.38 | 1630.6 ± 424.84 | 219 ± 13,*** | 201 ± 13,**** | 17.55 ± 3.48,** % | 11.70 ± 2.95,*** % | 7.83 ± 2.06,*** %
N52: SEQ ID NO: 1 with N18R, addition of two amino acids and PEG modification at the carboxyl terminal (YRVRFLAKENVTQDAEDRCT-{PEG}; reading uncertain) | 56.03 ± 4.21,* % | 27.19 ± 5.67,** % | 27.19 ± 4.67,*** % | 0.7 ± 0.2 | 1425.2 ± 555.76 | 153 ± 16,*** | 318 ± 37,*** | 13.87 ± 3.13,*** % | 9.57 ± 1.61,*** % | 10.86 ± 3.90,*** %
N37: SEQ ID NO: 1 with addition of two amino acids to the carboxyl terminal and PEG modification at the amino terminal ({PEG}-YRVRFLAKENVTQDAEDNCT; reading uncertain) | 49.45 ± 10.09,* % | 27.76 ± 6.51,** % | 11.33 ± 9.49,*** % | 0.89 ± 0.39 | 915.97 ± 199.07 | 113 ± 11,*** | 84 ± 7,**** | 15.13 ± 3.55,** % | 24.48 ± 2.51,* % | 36.47 ± 5.69,* %
N21: SEQ ID NO: 1 with deletion of positions 1-5 and 15-18 and addition of one amino acid at the amino terminal (SLAKENVTQD) | 31.06 ± 4.94,** % | 40.02 ± 4.20,** % | 13.58 ± 6.67,*** % | 0.71 ± 0.22 | 1065.78 ± 432.05 | 216 ± 12,*** | 34 ± 7,**** | 13.59 ± 2.07,** % | 9.87 ± 2.84,*** % | 30.45 ± 4.94,* %
N48: SEQ ID NO: 1 with A7R, deletion of position 11 and position 18, PEG modification at the carboxyl terminal (YRVRFLRKENTQDAED-{PEG}; reading uncertain) | 22.04 ± 3.01,*** % | 25.07 ± 6.31,** % | 25.07 ± 4.31,*** % | 0.71 ± 0.37 | 1558.12 ± 436.42 | 152 ± 18,*** | 374 ± 22,*** | 12.62 ± 3.25,** % | 9.09 ± 4.23,*** % | 13.78 ± 2.61,*** %
